Like-named read-outs stand apart in the source and are kept apart here.
Assays:
[1] = target: T1, SMARCA2 (Homo sapiens, UniProt P51531); experiment: SMARCA2 degradation, MSD assay, dose response; type: cell-based; design: key to AUC (area under the dose-response curve): sum of trapezoids of POC vs dose points, h = 1
T1 construct: endogenous in cells; host or cells: A375
Experimental: (§1) A375 cells were treated with SMARCA2 or BRD4 degraders for 2 h (4 h for BRD4) and generated lysates. SMARCA2 or BRD4 protein was measured with a variation of a sandwich ELISA that was assembled from commercially available antibodies as well as reagents and instrumentation procured from Meso Scale Discovery (MSD). Degradation parameter, DC50, is not suitable for PROTACs that induce partial/incomplete DR curves at a fixed time point; maximum drop in target protein level (Dmax) >>0. Conversely, the area under the curve (AUC) can be calculated as a degradation activity parameter for any DR curve, and it encompasses both the degradation potency (i.e., DC50) and efficacy (i.e., Dmax) of PROTACs.
(§2) A 1:3 compound dose-response titration was diluted in growth media (1:20), added to appropriate wells of a cell culture plate (1:10) and then assay plates were incubated at 37 °C, 5% CO2.
(§3) Plates were washed with 300 µL per well MSD wash buffer (MSD R61TX-1) between each step. Following the last incubation, plates were washed with MSD wash buffer then 150 µL of MSD read buffer (MSD R92TC-2) was added to each well. Plates were immediately read on a MSD plate reader (MSD Sector Imager 6000).
(§4) MSD electrochemiluminescence signals were subtracted by the average background signal from wells with lysis buffer alone. Normalized MSD values (POC) for individual compound treated wells were acquired by dividing background-subtracted assay signal by signal from vehicle control wells (cells + 0.1% DMSO) and multiplying by 100. This POC data was graphed using a nonlinear regression curve fit xy analysis and a log(inhibitor) vs response —variable slope (four parameter) model for dose response curves (Graphpad Prism 9, San Diego, CA, USA). To calculate area under the curve, all points on the curve were connected and vertical lines were drawn from each point down to y = 0, generating a series of trapezoids. The area of each trapezoid was determined using the equation A = (1/2)(h)(b1 + b2), where h = 1 (distance between points), b1 = POC of the first point and b2 = POC of the second point. The sum of all trapezoids provides an approximate area under the curve (AUC). For half-life (t1/2) determination in time course studies, a one-phase decay model was used for curve fitting and the time at which the curve crossed 50 POC was determined through interpolation (Graphpad Prism 9, San Diego, CA, USA).

[2] = target: T2, VHL/EloB/EloC (VBC) (Homo sapiens, UniProt P40337); experiment: SPR binary binding of PROTAC to VBC-functionalized surface; conditions: SPR; error SEM, N = 3; read-out: KLP (binary binding affinity between E3 ligase VHL and PROTAC)
T2 construct: VHL (54-213), ElonginB (17-112) ElonginC (1-104); made in house
Experimental: (§5) SPR experiments were performed on a Biacore 8 K or T200 instrument (Cytiva). […] The running buffer during immobilization was PBS with 0.005% P20. Either high-density (3000-4000 RU) or low-density (300-400 RU) VBC-functionalized surfaces were created, followed by equilibration in the running buffer for 3 h.
PROTACs (10 mM stocks in 100% DMSO) were diluted to 400 nM in a running buffer (20 mM Tris pH 7.5, 200 mM NaCl, 0.02% P20). This stock solution was then serially diluted in the running buffer containing final 2% DMSO. […] For SMARCA2 analysis, biotinylated proteins were introduced on a Series S streptavidin (SA) sensor chip at high-density (3000-4000 RU).
(§6) Raw sensorgrams were processed by performing double reference subtraction, solvent correction, and analysis was done using Biacore Insight Evaluation Software. Kinetic analysis was performed by fitting data to a 1:1 Langmuir interaction model and a steady-state affinity model was used to evaluate equilibrium binding affinity.

[3] = target: T3, VBC / SMARCA2^BD ternary complex (Homo sapiens, UniProt P40337+P51531); experiment: SPR ternary complex binding, VBC surface with preformed PROTAC/SMARCA2 bromodomain complex
T3 construct: VHL (54-213), ElonginB (17-112) ElonginC (1-104); SMARCA2^BD 1373–1511 ∆1400–1417; His6 (N, cleaved yes); made in house
Experimental: as §5
(§7) PROTACs (10 mM in 100% DMSO) were initially prepared at 200 nM in a running buffer (20 mM Tris pH 8.0, 250 mM NaCl, 1 mM TCEP, 0.01% P20, 0.2 mg/ml BSA) with a concentration of 2% DMSO. This solution was mixed at 1:1 ratio with a solution of 5 μM of the SMARCA2 or BRD4 bromodomain protein in the running buffer. This complex was then serially diluted in the running buffer containing 2.5 μM SMARCA2 or BRD4 and 2% DMSO (5-point five-fold serial dilution). For ternary experiments, solutions were injected sequentially in single-cycle kinetic format without regeneration (contact time 60 s, flow rate 80 μL/min, dissociation time 300 s) using a stabilization period of 60 s and syringe wash (50% DMSO) between injections onto a low-density VBC-functionalized surface.
as §6

[4] = target: T1, SMARCA2; experiment: SMARCA2 degradation time course in A375 cells (MSD); type: cell-based; conditions: single concentration at or near maximal activity
Excerpt: This characteristic has been described as cooperativity (α > 1) and likely results from favorable PPIs present in the ternary complex. […] To measure the rate of protein degradation, we treated A375 cells with a single concentration of each PROTAC and measured the decrease in target abundance over time as shown in Figs. 4b and5b.
MSD electrochemiluminescence signals were subtracted by the average background signal from wells with lysis buffer alone. Normalized MSD values (POC) for individual compound treated wells were acquired by dividing background-subtracted assay signal by signal from vehicle control wells (cells + 0.1% DMSO) and multiplying by 100. This POC data was graphed using a nonlinear regression curve fit xy analysis and a log(inhibitor) vs response —variable slope (four parameter) model for dose response curves (Graphpad Prism 9, San Diego, CA, USA). To calculate area under the curve, all points on the curve were connected and vertical lines were drawn from each point down to y = 0, generating a series of trapezoids. The area of each trapezoid was determined using the equation A = (1/2)(h)(b1 + b2), where h = 1 (distance between points), b1 = POC of the first point and b2 = POC of the second point. The sum of all trapezoids provides an approximate area under the curve (AUC). For half-life (t1/2) determination in time course studies, a one-phase decay model was used for curve fitting and the time at which the curve crossed 50 POC was determined through interpolation (Graphpad Prism 9, San Diego, CA, USA). Additionally initial rate of degradation was determined by multiplying 100 with rate constant (τ = 0.693/t1/2).

[5] = target: T4, SMARCA2^BD (Homo sapiens, UniProt P51531); experiment: SPR binary binding of PROTAC to SMARCA2-functionalized surface; conditions: 1:1 Langmuir binding model, SEM N=3 or SD N=2, read-out: KTP (binary affinity PROTAC / SMARCA2)
T4 construct: SMARCA2^BD 1373–1511 ∆1400–1417; made in house
Experimental: PROTACs (10 mM stocks in 100% DMSO) were diluted to 400 nM in a running buffer (20 mM Tris pH 7.5, 200 mM NaCl, 0.02% P20). This stock solution was then serially diluted in the running buffer containing final 2% DMSO. Solutions were injected in multi-cycle kinetic format without regeneration (contact time 60 s, flow rate 80 μL/min, dissociation time 120 s) using a stabilization period of 30 s and syringe wash (50% DMSO) between injections onto a high-density VBC-functionalized surface. For SMARCA2 analysis, biotinylated proteins were introduced on a Series S streptavidin (SA) sensor chip at high-density (3000-4000 RU).
as §6

[6] = target: T5, BRD4 (Homo sapiens, UniProt O60885); experiment: BRD4 degradation, MSD assay, dose response; type: cell-based; design: AUC (area under the dose-response curve): unit not given beside the values; conditions: A375 cells
T5 construct: endogenous in cells; host or cells: A375
Experimental: as §1, §2, §3, §4

[7] = target: T5, BRD4; experiment: BRD4 degradation time course in A375 cells (MSD); type: cell-based; conditions: single concentration at or near maximal activity
Excerpt: To measure the rate of protein degradation, we treated A375 cells with a single concentration of each PROTAC and measured the decrease in target abundance over time as shown in Figs. 4b and5b.
as §4

[8] = target: T6, VBC / BRD4^BD2 ternary complex (Homo sapiens, UniProt O60885+P40337); experiment: SPR ternary complex binding, VBC surface with preformed PROTAC/BRD4 BD2 complex
T6 construct: VHL (54-213), ElonginB (17-112) ElonginC (1-104); ternary complex formation with both bromodomains, BRD4^BD1 and BRD4^BD2, independently; His6 (N); made in house
Experimental: as §5
as §7, with “This complex was then serially diluted in the running buffer containing 2.5 μM SMARCA2 or BRD4 and 2% DMSO (5-point five-fold serial dilution).” left out
as §6

[9] = target: T7, BRD4-NanoLuc (Homo sapiens, UniProt O60885); experiment: NanoBRET target engagement assay, live and permeabilized HEK293 cells (BRD4); type: cell-based; conditions: for IC50: BRD4 NanoBRET TE
T7 construct: expressed in transfected cells; host or cells: HEK293
Experimental: We employed a NanoBRET-based target engagement (TE) assay as reported earlier^7 for evaluating PROTACs relative permeability. In summary, live and permeabilized HEK293 cells with SMARCA2 or BRD4-NanoLuc were used for measuring IC50 values of different PROTACs. The relative shift in the IC50 was evaluated as relative binding affinity (RBA) by taking the ratio of IC50 values of live and permeabilized cells. Availability index (AI), which is a surrogate for permeability can be calculated by taking a ratio of RBA of compounds to permeable benchmark molecules.
Relative Binding Affinity (RBA) = Live-cell TE IC50 / Permeabilized-cell TE IC50
Availability Index (AI) = RBAtest cmpd / RBApermeable benchmark
Availability Index (AI) greater than one is indicative of reduced permeability compared to the benchmark.

[10] = target: T8, BRD4^BD2 (Homo sapiens, UniProt O60885); experiment: SPR binary binding of PROTAC to BRD4^BD2-functionalized surface; conditions: 1:1 Langmuir binding model, SD N=2
T8 construct: ternary complex formation with both bromodomains, BRD4^BD1 and BRD4^BD2, independently; made in house

[11] = target: T9, VBC / BRD4^BD1 ternary complex (Homo sapiens, UniProt O60885+P40337); experiment: SPR ternary complex binding, VBC surface with preformed PROTAC/BRD4 BD1 complex
T9 construct: VHL (54-213), ElonginB (17-112) ElonginC (1-104); BRD4 (44-168); His6 (N, cleaved yes); made in house
Experimental: as §5
as §7, with “This complex was then serially diluted in the running buffer containing 2.5 μM SMARCA2 or BRD4 and 2% DMSO (5-point five-fold serial dilution).” left out
as §6

[12] = SPR, VHL, PROTAC, error SEM, N = 3, read-out: KLPT (ternary complex binding affinity)

Cc1ncsc1-c1ccc([C@H](C)NC(=O)[C@@H]2C[C@@H](O)CN2C(=O)[C@@H](NC(=O)c2cccc(N3CCN(c4nc(-c5ccccc5O)nnc4N)CC3)n2)C(C)(C)C)cc1 [Compound 9, 6-(4-(6-Amino-3-(2-hydroxyphenyl)-1,2,4-triazin-5-yl)piperazin-1-yl)-N-((S)-1-((2S,4R)-4-hydroxy-2-(((S)-1-(4-(4-methylthiazol-5-yl)phenyl)ethyl)carbamoyl)pyrrolidin-1-yl)-3,3-dimethyl-1-oxobutan-2-yl)picolinamide]
SMARCA2 degradation ([1]; 2 h MSD assay): ~ 30%
Dmax ([1]; A-375, SMARCA2 degraded, MSD assay, A375 cells, 2 h timepoint): 74%
AUC (area under the dose-response curve) ([1]; SMARCA2 MSD assay, A375 cells, 2 h): 85
DC50 ([1]; SMARCA2 degradation, MSD assay, A375 cells, 2 h timepoint): 372 nM
Kd [2]: 25 ± 4 nM
α (cooperativity, KLP/KLPT) [3]: 0.32
Kd [3, 12]: 77 ± 8 nM
Initial Degradation Rate [4]: 0.98 %/min
Kd [5]: 294 ± 33 nM

Cc1ncsc1-c1ccc(CNC(=O)[C@@H]2C[C@@H](O)CN2C(=O)[C@@H](NC(=O)COCc2cn(CCNC(=O)C[C@@H]3N=C(c4ccc(Cl)cc4)c4c(sc(C)c4C)-n4c(C)nnc43)nn2)C(C)(C)C)cc1 [Compound 12, (2S,4R)-1-((S)-2-(2-((1-(2-(2-((S)-4-(4-chlorophenyl)-2,3,9-trimethyl-6H-thieno[3,2-f][1,2,4]triazolo[4,3-a][1,4]diazepin-6-yl)acetamido)ethyl)-1H-1,2,3-triazol-4-yl)methoxy)acetamido)-3,3-dimethylbutanoyl)-4-hydroxy-N-(4-(4-methylthiazol-5-yl)benzyl)pyrrolidine-2-carboxamide]
Dmax ([6]; A-375, BRD4 degraded, MSD assay, 4 h timepoint): 91%
AUC (area under the dose-response curve) ([6]; BRD4 MSD assay, 4 h): 192
DC50 ([6]; BRD4 degradation, MSD assay, 4 h timepoint): 518 nM
Kd [2]: 22 ± 2 nM
Initial Degradation Rate [7]: 1.38 %/min
α (cooperativity, KLP/KLPT) [8]: 3.7
Kd [8, 12]: 6 ± 1 nM
Availability Index ([9]; RBA test cmpd / RBA of JQ1 benchmark, surrogate for permeability): 264.47
IC50 ([9]; live HEK293 cells, read-out: Live-Cell TE): 21600 nM
IC50 ([9]; permeabilized HEK293 cells, read-out: Permeabilized-Cell TE): 80 nM
Kd [10]: 20.5 ± 1.2 nM
α (cooperativity, KLP/KLPT) [11]: 0.7
Kd [11, 12]: 31 ± 4 nM
